For this assay, the system named is ex-vivo carotid artery segment of the mouse. Description: Ex-vivo carotid artery segment incubated with TEMPOL in vitro (EDD). On the set-up: species or system C57BL/6 male mice. How it is done: After 8 weeks, the mice were anesthetized with isoflurane and euthanized by bloodletting through cardiac puncture. The carotid artery was excised, the […] was inserted into the tip of a glass micropipette, and fixed with a nylon suture in a myograph chamber (DMTInc., Ann Arbor, Mich., USA) containing a buffered saline solution.
The artery was pressurized to 50 mm Hg at 37° C. and equilibrated for 45 minutes before the experiment. After sub-polar contraction was performed using phenylephrine (2 μM), the diameter of the arterial lumen was increased to the degree of response of acetylcholine (Ach: 1×10^−91×10^−4 M), and the arterial tube treated with acetylcholine was used to determine […] dilation by vasodilation in response to NO donor sodium nitroprusside (SNP: 1×10^−101×10^−4 M). Calculated according to the following formula, the vasodilation response was recorded as the actual diameter due to the difference in the maximum carotid artery diameter of the young and old animals, expressed as a percentage of the maximum reaction. The formula is as follows:
Dilation (%)=(Ds−Db)/(Dm−Db)×100%;
wherein, Dm is the maximum diameter of the lumen under a pressure of 50 mm Hg pressure; Db is the steady-state lumen diameter after pre-contraction before the first addition of the drug; Ds is the steady-state lumen diameter recorded after the drug is added.

`CC1(C)CC(O)CC(C)(C)N1[O]` [TEMPOL, 4-hydroxy-2,2,6,6-tetramethylpiperidin-1-yloxy]: the “EDD of the carotid artery after incubation in vitro” value by setting is: (old control group) “restored the EDD”; (other groups (young control, young and old experimental groups)) “no effect”.

For the origin of these results see patent US20210322450A1, “APPLICATION OF COMPOSITION CONTAINING NICOTINAMIDE MONONUCLEOTIDE IN ANTI-AGING DRUGS/HEALTHCARE PRODUCTS” (HOBOOMLIFE BIO-TECHNOLOGY (SHENZHEN) CO., LTD., priority 2019, published 2021).
